Laboratory results: US4383992A, “Water-soluble steroid compounds” (priority 1982, dated 1983)

Assay: Dissolution of steroid with alpha-cyclodextrin in aqueous suspension
Format: physicochemical
Details: 120 mg alpha-cyclodextrin added to 5 ml aqueous suspension, room temperature, agitated for several minutes
Description: 120 mg of alpha-cyclodextrin was added to 5 ml of an aqueous suspension of dexamethasone at room temperature.

## C[C@@H]1C[C@H]2[C@@H]3CCC4=CC(=O)C=C[C@]4(C)[C@@]3(F)[C@@H](O)C[C@]2(C)[C@@]1(O)C(=O)CO [dexamethasone, 9-Fluoro-11β,17,21-trihydroxy-16α-methylpregna-1,4-diene-3,20-dione]
  dissolution of steroid with alpha-cyclodextrin: did not dissolve and remained in suspension
